Patent US20110230481A2, “DERIVATIVES OF TETRABROMOBENZIMIDAZOLE, A PROCESS FOR THE PREPARATION THEREOF, A PHARMACEUTICAL COMPOSITION COMPRISING THE SAME, A METHOD OF USING THE SAME, A METHOD FOR MODULATING OR REGULATING SERINE/THREONINE KINASES, AND SERINE/THREONINE KINASES MODULATING AGENT” (SELVITA S.A., priority 2009, published 2011)

Tests used:
Test in all cases: KINOMEscan Max
Format in all cases: binding
EPHA8 = biological target: T1, EPHA8 (Homo sapiens, UniProt P29322)
T1 construct: purchased Ambit (KINOMEscan Max service)
Outline: (§1)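 DNA-tagged kinase + immobilized active-site directed ligand + test compound combined; ligand-bound kinase quantified by qPCR of tag. Competition binding format.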

EPHA1 = biological target: T2, EPHA1 (Homo sapiens, UniProt P21709)
T2 construct: purchased Ambit (KINOMEscan Max panel service)
Outline: as §1

MYO3A = MYO3A (Homo sapiens, UniProt Q8NEV4)
Outline: as §1

CDK4-cyclinD3 = CDK4-cyclinD3 (Homo sapiens, UniProt P11802)
Outline: as §1

CDK11 = CDK11 (Homo sapiens, UniProt Q9BWU1); conditions: 1 μM
Outline: as §1

[1] = biological target: T3, EGFR(L747-E749del. A750P) (Homo sapiens, UniProt P00533, A750P/DEL747-749); conditions: 1 μM
T3 construct: purchased Ambit (KINOMEscan Max panel service)
Outline: as §1

NDR1 = NDR1 (Homo sapiens, UniProt Q15208)
Outline: as §1

CDK11, sequence (Q9BWU1 whole entry): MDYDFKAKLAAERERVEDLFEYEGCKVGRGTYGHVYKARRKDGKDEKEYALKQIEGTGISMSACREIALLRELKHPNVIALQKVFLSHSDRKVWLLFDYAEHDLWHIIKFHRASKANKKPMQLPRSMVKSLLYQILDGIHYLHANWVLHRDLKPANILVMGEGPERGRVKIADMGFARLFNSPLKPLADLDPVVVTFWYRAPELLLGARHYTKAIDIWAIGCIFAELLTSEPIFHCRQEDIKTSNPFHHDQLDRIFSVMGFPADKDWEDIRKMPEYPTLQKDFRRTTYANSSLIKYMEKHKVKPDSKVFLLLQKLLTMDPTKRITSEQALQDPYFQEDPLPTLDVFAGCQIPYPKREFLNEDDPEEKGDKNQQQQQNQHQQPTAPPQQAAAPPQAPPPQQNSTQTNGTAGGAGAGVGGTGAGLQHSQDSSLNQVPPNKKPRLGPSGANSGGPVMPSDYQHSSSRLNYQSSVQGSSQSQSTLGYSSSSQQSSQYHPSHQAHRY
T1 sequence (P29322 28-1005): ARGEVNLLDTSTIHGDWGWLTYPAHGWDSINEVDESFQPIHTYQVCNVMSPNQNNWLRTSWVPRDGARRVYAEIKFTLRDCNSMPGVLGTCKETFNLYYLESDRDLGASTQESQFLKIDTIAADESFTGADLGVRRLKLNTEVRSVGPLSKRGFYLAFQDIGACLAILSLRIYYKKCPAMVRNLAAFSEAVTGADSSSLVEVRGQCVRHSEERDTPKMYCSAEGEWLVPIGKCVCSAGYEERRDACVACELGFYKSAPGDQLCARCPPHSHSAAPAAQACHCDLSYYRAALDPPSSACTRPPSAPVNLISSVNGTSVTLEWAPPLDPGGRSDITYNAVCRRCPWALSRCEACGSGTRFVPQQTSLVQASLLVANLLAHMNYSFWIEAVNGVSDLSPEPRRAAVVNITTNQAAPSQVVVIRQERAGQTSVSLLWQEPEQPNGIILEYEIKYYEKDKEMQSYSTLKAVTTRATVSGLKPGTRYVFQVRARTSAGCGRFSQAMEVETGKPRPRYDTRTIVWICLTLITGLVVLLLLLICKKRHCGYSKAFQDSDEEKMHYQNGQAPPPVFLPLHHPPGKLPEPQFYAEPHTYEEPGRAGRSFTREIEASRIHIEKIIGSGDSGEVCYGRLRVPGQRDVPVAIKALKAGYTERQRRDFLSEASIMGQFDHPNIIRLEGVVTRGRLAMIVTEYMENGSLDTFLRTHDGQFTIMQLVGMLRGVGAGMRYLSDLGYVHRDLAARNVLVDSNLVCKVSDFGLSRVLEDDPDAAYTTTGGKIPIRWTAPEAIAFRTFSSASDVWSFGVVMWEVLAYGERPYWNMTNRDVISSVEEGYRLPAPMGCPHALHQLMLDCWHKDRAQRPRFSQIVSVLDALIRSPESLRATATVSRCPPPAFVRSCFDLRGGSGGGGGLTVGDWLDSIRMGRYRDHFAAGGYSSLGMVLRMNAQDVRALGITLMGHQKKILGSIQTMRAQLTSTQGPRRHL
CDK4-cyclinD3, sequence (P11802 whole entry): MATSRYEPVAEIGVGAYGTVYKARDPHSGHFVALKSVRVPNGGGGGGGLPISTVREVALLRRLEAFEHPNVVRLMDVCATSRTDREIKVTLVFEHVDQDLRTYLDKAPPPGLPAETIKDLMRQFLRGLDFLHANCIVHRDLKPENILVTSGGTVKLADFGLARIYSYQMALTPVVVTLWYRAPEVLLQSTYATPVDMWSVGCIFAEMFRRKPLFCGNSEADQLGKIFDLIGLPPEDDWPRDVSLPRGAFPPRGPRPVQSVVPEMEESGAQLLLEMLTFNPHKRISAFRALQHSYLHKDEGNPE
CDK4-cyclinD3, sequence (P30281 whole entry partner): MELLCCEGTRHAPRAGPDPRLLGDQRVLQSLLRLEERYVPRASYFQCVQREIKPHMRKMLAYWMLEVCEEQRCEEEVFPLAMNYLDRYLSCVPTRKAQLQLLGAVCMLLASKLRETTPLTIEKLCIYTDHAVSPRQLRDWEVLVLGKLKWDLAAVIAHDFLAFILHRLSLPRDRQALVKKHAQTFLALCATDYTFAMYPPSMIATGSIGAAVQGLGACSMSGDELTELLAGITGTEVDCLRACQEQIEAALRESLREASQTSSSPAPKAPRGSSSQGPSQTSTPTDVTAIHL
MYO3A, sequence (Q8NEV4 whole entry): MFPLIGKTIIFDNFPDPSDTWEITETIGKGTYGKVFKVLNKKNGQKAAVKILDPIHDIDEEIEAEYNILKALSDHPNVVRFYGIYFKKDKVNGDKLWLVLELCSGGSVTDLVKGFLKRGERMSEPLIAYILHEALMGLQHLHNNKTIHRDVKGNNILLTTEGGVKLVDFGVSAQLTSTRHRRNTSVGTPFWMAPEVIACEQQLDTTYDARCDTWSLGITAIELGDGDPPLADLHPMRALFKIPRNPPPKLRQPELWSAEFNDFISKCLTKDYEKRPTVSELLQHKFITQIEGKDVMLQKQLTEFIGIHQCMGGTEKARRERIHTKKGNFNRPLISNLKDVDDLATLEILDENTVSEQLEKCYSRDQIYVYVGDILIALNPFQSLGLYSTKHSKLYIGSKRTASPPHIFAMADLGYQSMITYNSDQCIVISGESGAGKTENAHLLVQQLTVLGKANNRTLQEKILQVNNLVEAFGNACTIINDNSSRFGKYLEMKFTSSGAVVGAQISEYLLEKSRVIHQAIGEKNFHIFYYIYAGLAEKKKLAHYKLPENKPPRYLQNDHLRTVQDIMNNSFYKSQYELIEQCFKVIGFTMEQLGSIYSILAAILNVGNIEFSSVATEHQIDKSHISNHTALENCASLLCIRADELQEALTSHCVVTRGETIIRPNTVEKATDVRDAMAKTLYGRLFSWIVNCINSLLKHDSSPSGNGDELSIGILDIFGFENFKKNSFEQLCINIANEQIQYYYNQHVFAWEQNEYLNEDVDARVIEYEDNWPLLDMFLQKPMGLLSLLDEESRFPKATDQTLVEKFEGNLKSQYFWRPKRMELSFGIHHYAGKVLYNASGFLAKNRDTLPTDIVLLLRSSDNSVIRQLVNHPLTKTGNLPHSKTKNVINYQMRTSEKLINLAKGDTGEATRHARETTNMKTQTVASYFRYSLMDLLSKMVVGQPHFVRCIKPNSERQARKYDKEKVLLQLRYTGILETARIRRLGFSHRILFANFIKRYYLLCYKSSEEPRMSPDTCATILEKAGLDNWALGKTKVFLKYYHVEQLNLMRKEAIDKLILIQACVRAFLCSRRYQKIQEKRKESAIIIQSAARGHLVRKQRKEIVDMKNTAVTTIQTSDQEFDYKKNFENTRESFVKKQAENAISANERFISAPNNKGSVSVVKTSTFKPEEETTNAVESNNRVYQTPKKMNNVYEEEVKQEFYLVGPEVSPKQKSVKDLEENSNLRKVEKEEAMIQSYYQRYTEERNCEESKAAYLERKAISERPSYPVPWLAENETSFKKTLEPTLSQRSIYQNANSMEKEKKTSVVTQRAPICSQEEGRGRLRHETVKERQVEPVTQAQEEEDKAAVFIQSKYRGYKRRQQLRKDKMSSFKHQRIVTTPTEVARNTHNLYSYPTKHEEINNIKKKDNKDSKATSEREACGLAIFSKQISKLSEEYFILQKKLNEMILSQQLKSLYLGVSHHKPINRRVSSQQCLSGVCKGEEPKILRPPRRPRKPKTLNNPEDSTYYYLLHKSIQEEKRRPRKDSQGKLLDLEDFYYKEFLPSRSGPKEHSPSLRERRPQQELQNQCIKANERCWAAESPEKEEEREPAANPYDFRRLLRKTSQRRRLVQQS
T2 sequence (P21709 26-976): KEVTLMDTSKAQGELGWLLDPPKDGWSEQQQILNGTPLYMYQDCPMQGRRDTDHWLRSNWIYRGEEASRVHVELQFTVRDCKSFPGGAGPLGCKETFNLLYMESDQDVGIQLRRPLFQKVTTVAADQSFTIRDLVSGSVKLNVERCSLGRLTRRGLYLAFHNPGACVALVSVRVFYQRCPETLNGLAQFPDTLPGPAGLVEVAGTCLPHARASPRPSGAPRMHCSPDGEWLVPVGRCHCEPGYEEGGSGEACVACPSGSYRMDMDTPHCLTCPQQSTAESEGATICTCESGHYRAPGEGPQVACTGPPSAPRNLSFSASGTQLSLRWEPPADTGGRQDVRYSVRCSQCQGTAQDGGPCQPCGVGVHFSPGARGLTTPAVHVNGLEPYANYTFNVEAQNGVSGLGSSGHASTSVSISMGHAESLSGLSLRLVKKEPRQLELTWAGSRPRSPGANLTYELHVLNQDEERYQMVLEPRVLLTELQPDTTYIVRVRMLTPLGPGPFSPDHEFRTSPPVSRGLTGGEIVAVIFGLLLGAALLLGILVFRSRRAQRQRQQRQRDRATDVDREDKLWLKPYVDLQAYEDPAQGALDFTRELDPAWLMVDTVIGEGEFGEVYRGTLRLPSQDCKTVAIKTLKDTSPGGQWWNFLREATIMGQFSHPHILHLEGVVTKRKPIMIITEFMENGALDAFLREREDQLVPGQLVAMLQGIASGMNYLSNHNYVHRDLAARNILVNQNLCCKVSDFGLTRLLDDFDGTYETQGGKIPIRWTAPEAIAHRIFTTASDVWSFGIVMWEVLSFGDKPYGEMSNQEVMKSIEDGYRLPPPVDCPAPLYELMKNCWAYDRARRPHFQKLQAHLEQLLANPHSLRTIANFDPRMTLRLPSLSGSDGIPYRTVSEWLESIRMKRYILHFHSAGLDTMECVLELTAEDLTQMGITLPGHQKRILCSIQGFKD

NCCCNc1nc2c(Br)c(Br)c(Br)c(Br)c2[nH]1 [Compound 11, N-(3-aminopropyl)-4,5,6,7-tetrabromo-1H-benzo[d]imidazol-2-amine]
remaining binding at 1 µM (EPHA8): 86%
remaining binding at 1 µM (EPHA1): 100%
remaining binding at 1 µM (MYO3A): 100%
remaining binding at 1 µM (CDK4-cyclinD3): 92%
% binding (CDK11): 74%
% binding [1]: 100%
remaining binding at 1 µM (NDR1): 100%
